In patent US11872220B2, “Methods and compositions for treating B-cell malignancies” (Janssen Pharmaceutica NV, priority 2021, dated 2024):
“Also recorded” adds a separate entry of the source.

What was measured:
[1] = system: IL-10, TNF-α, IL12p70, IL-6 in serum; test: Serum cytokine secretion in OCI-LY3 tumor bearing mice, Mesoscale assay; format: in vivo, NOD/SCID mice
Procedure: Tumor and Serum Samples Collection on Study Termination. Whole blood samples were collected from all groups at 6 hours post the final dose. Serum samples were isolated from all groups were collected and stored at −80° C. Tumor tissues were collected from all of groups when study was terminated, and split into 2 pieces, take weights, processed to snap frozen and stored in 2 separated tubes.
Tumor and Serum Samples Collection on Study Termination. NF-κB signaling regulates the secretion of multiple cytokines, including interleukin (IL)-6 and IL-10. Secretion of the cytokines (IL-10, TNF-α, IL12p70, and IL-6) in serum samples of OCI-LY3 animals was measured by using a Mesoscale assay (MSD). For in vivo efficacy study, serum samples were isolated from all tumor bearing mice at 6 hours post the final dose of the MALT1 inhibitor of Formula I. For in vivo Pharmacodynamic (PD) experiment, serum samples were isolated from all tumor bearing mice (tumor volume around 700 mm3) at 8 hours post treatment with the MALT1 inhibitor of Formula I (BID dosing). Serum samples were transferred to an MSD plate (V-Plex Proinflammation Panel 1 [human] kit) and incubated for 2 hours at RT followed by a 2-hour incubation with cytokine antibody solution. Plates were read on a SECTOR imager.

OCI-LY3 DLBCL CDX model = test: In vivo efficacy in OCI-LY3 model, tumor growth inhibition; parameters: species or system NOD/SCID mice; details: for tumor growth inhibition (TGI): oral, 12 days post treatment; for in vivo growth of OCI-LY3 DLBCL CDX model (efficacy in words): OCI-LY3 model (CARD11 mut)
[2] = system: RelB and Bcl10 cleavage in OCI-Ly3 cell line; test: Activity of MALT1 inhibitor in OCI-Ly3 cell line, inhibition of RelB and Bcl10 cleavage by Western blotting; format: cell-based; details: 24 hours, with proteasome inhibitor MG132, Western blot
Procedure: OCI-Ly3 cell lines were cultured for 24 hours in combination with proteasome inhibitor MG132 and indicated concentrations of MALTi. Protein lysates were probed for RelB, Bcl10 and actin or vinculin as loading controls.
Western blot analysis was performed using standard techniques. Membranes were probed with the following antibodies: anti-RelB, p-IκBα, Bcl-XL (Cell Signaling), Bcl10 (Abcam), and actin (Santa Cruz Biotechnology). Odyssey Imager (Li-Cor Biosciences) was used as a detection method according to the manufacturer's protocol.
To test MALT1 inhibition in the context of CLL, we investigated CLL functionality under divergent microenvironmental stimulations. […] Proliferation of CLL cells was induced either via CD40 stimulation in combination with IL-21, or by stimulation with CpG in combination with IL-2, IL-15 and IL-21 ([…]). […] Because of the central role of MALT1 in NF-κB signaling, we investigated known targets of NF-κB such as IL-6, IL-10 and TNFα. Both CD40, BCR and TLR9 stimulation induced cytokine secretion of IL-6, IL-10 and TNFα (FIG. 1C-E). […] The role of MALT1 in the BCR and TLR9 pathway has previously been described, but its role in the CD40 pathway is a new observation.

[3] = system: CD4+/CD25+/FoxP3+ regulatory T cells; test: Regulatory T cell population in unstimulated PBMCs, flow cytometry; format: cell-based, human; details: unstimulated CLL and healthy donor PBMCs, 4 days
Procedure: (§1) Afterwards, T cell subsets were measured using flow cytometry as described. […] Afterwards, T cell subsets were measured using flow cytometry based on CD27 and CD45RA. Naïve T cells were gated as CD27^+/CD45RA^+, central memory T cells were gated as CD27^+/CD45RA^−, memory T cells were gated as CD27^−/CD45RA^−, and terminally differentiated effector memory cells re-expressing CD45RA T cells were gated as CD27^−/CD45RA^+. […] Afterwards, regulatory T cells were measured using flow cytometry and gated as CD4^+/CD25^+/FoxP3^+. Bars represent the mean±SEM, *p<0.05, ***p<0.001 (paired sample t-test).
(§2) CLL or healthy donor PBMCs were labeled with CFSE or CTV and stimulated with anti-CD3 (clone 1XE) and anti-CD28 (clone 15E8) antibodies for 4 days. Culture supernatant was collected and IFNγ (ThermoFisher) and TNFα (Diaclone) levels were measured by commercial ELISA kits. The activation/proliferation panel consisted of the following antibodies: CD3-μF700 (eBioscience), CD4-PE-Cy7, CD8-PerCpCy5.5, CD25-APC (BD Bioscience). The differentiation panel consisted of the following antibodies: CD27/CCR7-PerCP-eFluor710 or (eBioscience), CD4-PE-Cy7, CD8-BV786, CD25-PE, CD45RA-BV650, and FoxP3-APC (BD Biosciences). […] Samples were measured on a FACS Canto II cytometer (BD Biosciences, San Jose, CA, USA) and analyzed using FlowJo software.

[4] = system: NF-κB signaling (p-IκBα, Bcl-XL) in CLL cells; test: Western blot of p-IκBα and Bcl-XL in stimulated CLL cells; format: cell-based, human; details: 10 μM MALTi, 24 hours
Procedure: (§3) FIG. 1A is a bar graph showing the results of an experiment in which CLL cells were treated with the indicated drugs and concentrations and incubated for 24 hours. For the BCR stimulation, cells were supplemented with IL-4 and αIgM. […] Bars represent the mean±SEM. FIG. 1B is a bar graph showing the results of an experiment in which CLL cells were labeled with CellTrace Violet and cultured for 5 days on 3T40 supplemented with IL-21 or on 3T3 in combination with CpG, IL-2, IL-15, and IL-21 in combination with 10 μM MALTi. Proliferation was measured using flow cytometry based on CellTrace Violet signal (n=8). […] Afterwards, culture supernatant was collected and IL-6 (n=14) (FIG. 1C), IL-10 (n=13) (FIG. 1D), and TNFα (n=14) (FIG. 1E) levels were measured using commercial ELISA kits. […] Protein lysates were probed for p-IκBα, Bcl-XL, and actin as loading control.
Western blot analysis was performed using standard techniques. […]
(§4) CLL PBMCs were either co-cultured with 3T40 fibroblasts, stimulated with soluble or immobilized anti-IgM (SouthernBiotech, Birmingham, AL, USA) or stimulated with CpG ODN2006 (1 μg/mL) and incubated for 24 hours. Culture supernatant was collected and IL-6, IL-10, and TNFα levels were measured by commercial ELISA kits (Diaclone, Besancon, France). […] Samples were measured on a FACS Canto II cytometer (BD Biosciences, San Jose, CA, USA) and analyzed using FlowJo software.

[5] = system: CLL-derived and healthy T cells; test: T cell stimulation with anti-CD3/CD28: activation, proliferation, degranulation, cytokine secretion; format: cell-based, human
Procedure: Afterwards, cells were measured using flow cytometry. FIG. 3A are bar graphs showing T cell activation measured based on CD25. […] FIG. 3C are bar graphs showing T cell proliferation measured based on CellTrace Violet signal. FIG. 3D are bar graphs showing T cell degranulation measured in CLL (n=13) and healthy (n=3) T cells based on CD107a. After incubation, culture supernatant was collected and IFNγ (n=12) and TNFα (n=9) levels were measured using commercial ELISA kits (FIG. 3E).
CLL or healthy donor PBMCs were labeled with CFSE or CTV and stimulated with anti-CD3 (clone 1XE) and anti-CD28 (clone 15E8) antibodies for 4 days. Culture supernatant was collected and IFNγ (ThermoFisher) and TNFα (Diaclone) levels were measured by commercial ELISA kits. The activation/proliferation panel consisted of the following antibodies: CD3-μF700 (eBioscience), CD4-PE-Cy7, CD8-PerCpCy5.5, CD25-APC (BD Bioscience). The differentiation panel consisted of the following antibodies: CD27/CCR7-PerCP-eFluor710 or (eBioscience), CD4-PE-Cy7, CD8-BV786, CD25-PE, CD45RA-BV650, and FoxP3-APC (BD Biosciences). The cytotoxicity panel consisted of the following antibodies: CD107a-FITC (eBioscience), CD4-PerCPeF710, CD8-BV786, CD25-PE, and PD1-PE-Cy7 (BD Biosciences). Samples were measured on a FACS Canto II cytometer (BD Biosciences, San Jose, CA, USA) and analyzed using FlowJo software.

[6] = system: NF-κB-mediated cytokine secretion in CLL cells; test: Cytokine secretion (IL-6, IL-10, TNFα) of stimulated CLL cells, ELISA; format: cell-based, human; details: CD40, BCR and TLR9 stimulation, 24 hours
Procedure: as §3, §4

CLL cells [7] = details: CD40-, BCR- or TLR9-stimulated, 10 μM MALTi, BH3 mimetic for additional 24 hours
Procedure: FIGS. 2A-2C are bar graphs showing the results of experiments in which CLL cells were cultured for 24 hours on 3T40, stimulated with IL-4 and αIgM (soluble or immobilized to beads) or stimulated with CpG, and incubated for 24 hours in combination with 10 μM MALTi. […] FIGS. 2D-2I) are graphs showing the results of experiments in which, in parallel, CD40-stimulated (n=9) (FIGS. 2D-2E), BCR-stimulated (n=8) (FIGS. 2F-2G), and TLR9-stimulated (n=6) (FIGS. 2H-2I) cells were with venetoclax or S63 for an additional 24 hours. Viability was measured using flow cytometry using DiOC6 and TO-PRO3 viability staining. […]
Lymphocytes of CLL patients were co-cultured with NIH3T3 fibroblasts stably transfected with human CD40L (3T40) or negative control (3T3) as described before (Urashima et al., “CD40 Ligand Triggered Interleukin-6 Secretion in Multiple Myeloma,” Blood 85(7):1903-1912 (1995) and Schultze et al., “CD40-Activated Human B Cells: An Alternative Source of Highly Efficient Antigen Presenting Cells to Generate Autologous Antigen-Specific T Cells for Adoptive Immunotherapy,” J. Clin. Invest. 100(11):2757-2765 (1997). After 24 hours, cells were detached and incubated with or without drugs for an additional 24 hours. CLL cell viability was measured by flow cytometry using DioC6 and TO-PRO-3 viability dyes. […]

[8] = system: Bcl-2 family members Bcl-XL, Mcl-1 and Bcl-2 in CLL cells; test: Expression of Bcl-XL, Mcl-1 and Bcl-2 in stimulated CLL cells, intracellular flow cytometry; format: cell-based, human; details: CD40, BCR or TLR9 stimulation, 10 μM MALTi, 24 hours
Procedure: Afterwards, expression of Bcl-XL (n=13) (FIG. 2A).
CLL PBMCs were either co-cultured with 3T40 fibroblasts, stimulated with soluble or immobilized anti-IgM (SouthernBiotech, Birmingham, AL, USA) or stimulated with CpG ODN2006 (1 μg/mL) and incubated for 24 hours. Culture supernatant was collected and IL-6, IL-10, and TNFα levels were measured by commercial ELISA kits (Diaclone, Besancon, France). Intracellular flow cytometry staining was performed using Cytofix/Cytoperm according to manufacturer's protocol (BD Biosciences). Cells were stained with the following antibodies: anti-Bcl-XL-FITC, Mcl-1-PE, and Bcl-2-BV421 (BD Biosciences). Samples were measured on a FACS Canto II cytometer (BD Biosciences, San Jose, CA, USA) and analyzed using FlowJo software.

CLL cells [9] = test: CLL cell viability, flow cytometry with DiOC6 and TO-PRO3; format: cell-based, human; details: 24 hours, DiOC6 and TO-PRO3 staining
Procedure: as §3

[10] = system: T cell subsets in CLL and healthy donor PBMCs; test: T cell differentiation and subset distribution, flow cytometry; format: cell-based, human
Procedure: as §1, §2

CLL cells [11] = test: Proliferation of CLL cells, CellTrace Violet; format: cell-based, human; details: 10 μM MALTi, 5 days; CD40 stimulation + IL-21 or CpG + IL-2, IL-15, IL-21
Procedure: as §3
CLL PBMCs were labeled with CellTrace Violet and either co-cultured with 3T40 fibroblasts and supplemented with IL-21 (25 ng/mL) or stimulated with CpG ODN2006 (1 μg/mL) and supplemented with IL-2, IL-15, and IL-21 (25 ng/mL). CLL cells were cultured for 5 days. […] Samples were measured on a FACS Canto II cytometer (BD Biosciences, San Jose, CA, USA) and proliferation was analyzed using FlowJo software.

CC1(C)CCC(CN2CCN(c3ccc(C(=O)NS(=O)(=O)c4ccc(NCC5CCOCC5)c([N+](=O)[O-])c4)c(Oc4cnc5[nH]ccc5c4)c3)CC2)=C(c2ccc(Cl)cc2)C1 [Venetoclax, 4-[4-[[2-(4-chlorophenyl)-4,4-dimethylcyclohexen-1-yl]methyl]piperazin-1-yl]-N-[3-nitro-4-(oxan-4-ylmethylamino)phenyl]sulfonyl-2-(1H-pyrrolo[2,3-b]pyridin-5-yloxy)benzamide, reference compound]
cytokine secretion levels in serum (IL-10, TNFα, IL12p70, IL6) ([1]; monotherapy): didn't show effect | tumor growth inhibition (TGI) (OCI-LY3 DLBCL CDX model; 40 mg/kg QD): 0.98% | TGI (OCI-LY3 DLBCL CDX model; 40 mg/kg, QD): 0.98% | in vivo growth of OCI-LY3 DLBCL CDX model (efficacy in words) (OCI-LY3 DLBCL CDX model): did not show any efficacy

O=C(Nc1ccnc(C(F)(F)F)c1)c1cnn(-c2cccc3c(=O)[nH]ccc23)c1C(F)(F)F [MALT1 inhibitor of Formula I, 1-(1-oxo-1,2-dihydroisoquinolin-5-yl)-5-(trifluoromethyl)-N-[2-(trifluoromethyl)pyridin-4-yl]-1H-pyrazole-4-carboxamide]
inhibition of RelB and Bcl10 cleavage [2]: confirmed activity | CD4+/CD25+/FoxP3+ T cells [3]: specific significant decrease | Bcl-XL expression, Western blot ([4]; BCR stimulation with soluble or immobilized anti-IgM or TLR9 stimulation via CpG): inhibition of Bcl-XL expression was also observed | p-IκBα and Bcl-XL, Western blot ([4]; CD40-stimulated (3T40) CLL cells): a decrease in p-IκBα and the NF-κB target Bcl-XL | CD107a (LAMP-1) expression, T cell degranulation ([5]; anti-CD3/CD28, 4 days): reduced | IFNγ and TNFα cytokine secretion ([5]; anti-CD3/CD28, 4 days, ELISA): significantly inhibited | concentrations at which in vitro T cell activation is impaired ([5]; anti-CD3/CD28 stimulated T cells): > 1 µM | T cell activation and proliferation (CD25, PD-1, CellTrace Violet) ([5]; soluble anti-CD3/CD28, 4 days, CD4 and CD8 T cells, CLL and healthy donors): significantly reduced | NF-κB-mediated cytokine secretion (IL-6, IL-10, TNFα) [6]: decreased NF-κB-mediated cytokine secretion in all conditions and was most effective in CD40-stimulated cells | sensitivity of stimulated CLL cells to venetoclax and S63 with concurrent MALT1 inhibition (CLL cells [7]): a shift towards venetoclax and S63 sensitivity in all these conditions | expression of Bcl-XL, flow cytometry [8]: inhibited | expression of Mcl-1 and Bcl-2, flow cytometry [8]: not significantly affected | IL-10, TNF-α, and IL12p70 secretion levels in serum ([1]; 6 hours post final dose): decrease IL-10, TNF-α, and IL12p70 secretion levels; also recorded: downregulate IL-10, TNF-α and IL12p70 secretion | direct cell death in CLL cells (viability) (CLL cells [9]): did not induce direct cell death | tumor growth inhibition (TGI) (OCI-LY3 DLBCL CDX model; 30 mg/kg BID): 41.31% | TGI (OCI-LY3 DLBCL CDX model; 30 mg/kg, BID as printed, (second line of Table 4)): 69.92% | TGI (OCI-LY3 DLBCL CDX model; 30 mg/kg, BID, (first line of Table 4)): 41.31% | tumor growth inhibition (TGI) (OCI-LY3 DLBCL CDX model; 100 mg/kg BID): 69.92% | in vivo growth of OCI-LY3 DLBCL CDX model (efficacy in words) (OCI-LY3 DLBCL CDX model): moderately inhibits in vivo growth | T cell subset distribution (differentiation) ([10]; stimulated with anti-CD3/CD28, 4 days, increasing concentrations): reverted the T cell subset distribution back to the phenotype seen in unstimulated cells | T cell subset distribution ([10]; unstimulated cells, 4 days): did not affect T cell subset distribution | proliferation of CLL cells (CLL cells [11]): reduced both types of proliferation but did not fully block the proliferation
